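96-well plates; 48 h exposure; 5 concentrations. Endpoints by linear interpolation between flanking doses. Not reached: highest tested concentration assigned. GI50 is the concentration that inhibits growth by half.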 Active and inactive are the calls of the source. Rule as the data show it: active = GI50 up to about 1.1 µM and inactive = higher.
Key:
Assay in all cases: DTP human tumour cell line panel, 48 h
SF-539 = system: SF-539
MOLT-4 = system: MOLT-4
MCF7 = system: MCF7
HOP-92 = system: HOP-92
HOP-62 = system: HOP-62
IGROV-1 = system: IGROV-1
SNB-19 = system: SNB-19
SF-268 = system: SF-268
A498 = system: A498
HCT-116 = system: HCT-116
COLO 205 = system: COLO 205
LOX IMVI = system: LOX IMVI
NCI-H226 = system: NCI-H226
SN12C = system: SN12C
PC-3 = system: PC-3
SK-MEL-5 = system: SK-MEL-5
A549 = system: A549
RPMI-8226 = system: RPMI-8226
U-251 = system: U-251
MDA-MB-231 = system: MDA-MB-231

SMILES | GI50 (SF-539) | GI50 (MOLT-4) | GI50 (MCF7) | GI50 (HOP-92) | GI50 (HOP-62) | GI50 (IGROV-1) | GI50 (SNB-19) | GI50 (SF-268) | GI50 (A498) | GI50 (HCT-116) | GI50 (COLO 205) | GI50 (LOX IMVI) | GI50 (NCI-H226) | GI50 (SN12C) | GI50 (PC-3) | GI50 (SK-MEL-5) | GI50 (A549) | GI50 (RPMI-8226) | GI50 (U-251) | GI50 (MDA-MB-231)
O=c1[nH]c(N/N=C\C(O)C(O)C(O)CO)nc2ccccc12 (configuration not stated) | > 100 µM (inactive) | > 100 µM (inactive) | > 100 µM (inactive) | > 100 µM (inactive) | > 100 µM (inactive) | > 100 µM (inactive) | > 100 µM (inactive) | > 100 µM (inactive) | > 100 µM (inactive) | > 100 µM (inactive) | 83.2 µM (inactive) | > 100 µM (inactive) | > 100 µM (inactive) | > 100 µM (inactive) | > 100 µM (inactive) | > 100 µM (inactive) | > 100 µM (inactive) | > 100 µM (inactive) | > 100 µM (inactive) | 
O=C(/C=C/c1cccc([N+](=O)[O-])c1)c1cccnc1 | 21.1 µM (inactive) | 26.4 µM (inactive) |  | 74 µM (inactive) | > 100 µM (inactive) | 28.7 µM (inactive) | > 53.3 µM (inactive) | 33.3 µM (inactive) | > 43.6 µM (inactive) | 16.7 µM (inactive) | 35.6 µM (inactive) | 21.2 µM (inactive) | > 52.6 µM (inactive) | 26.5 µM (inactive) |  | 14.7 µM (inactive) | > 60 µM (inactive) | 19.4 µM (inactive) | 20.6 µM (inactive) | 
Cn1cnc([N+](=O)[O-])c1Sc1nc2cccnc2s1 | 19.8 µM (inactive) | 10.4 µM (inactive) |  | 18.5 µM (inactive) | > 100 µM (inactive) | 17.5 µM (inactive) | 78.9 µM (inactive) | 28.8 µM (inactive) | 40.9 µM (inactive) | 16 µM (inactive) | 10.3 µM (inactive) | 25.1 µM (inactive) | 17.1 µM (inactive) | 17.8 µM (inactive) |  | 19.7 µM (inactive) | 34 µM (inactive) | 19.2 µM (inactive) | 24 µM (inactive) | 
CN(C)CCCN1c2ccc([N+](=O)[O-])cc2CCc2cc([N+](=O)[O-])ccc21 | 15.7 µM (inactive) | 14.5 µM (inactive) |  | 5.26 µM (inactive) | 16 µM (inactive) | 14.9 µM (inactive) | 17.8 µM (inactive) | 15.4 µM (inactive) |  | 14.4 µM (inactive) | 14.9 µM (inactive) | 16.9 µM (inactive) | 15.1 µM (inactive) | 15.8 µM (inactive) | 16.4 µM (inactive) | 15.7 µM (inactive) | 17.9 µM (inactive) | 20.4 µM (inactive) | 16.2 µM (inactive) | 15.9 µM (inactive)
Cc1cccc2c1C/C(=C\c1cccc(C)c1C(=O)O)C2=O | > 100 µM (inactive) | 61.1 µM (inactive) | > 100 µM (inactive) | > 100 µM (inactive) | > 100 µM (inactive) | > 100 µM (inactive) | > 100 µM (inactive) | > 100 µM (inactive) | > 100 µM (inactive) | > 100 µM (inactive) | 82.6 µM (inactive) | > 100 µM (inactive) | > 100 µM (inactive) | > 100 µM (inactive) | > 100 µM (inactive) | 71.6 µM (inactive) | > 100 µM (inactive) | 46.6 µM (inactive) | > 100 µM (inactive) | 
O=C(c1ccccc1)N(C(=O)c1ccccc1)c1nc(SCc2ccccc2)ns1 | 22.3 µM (inactive) | 25.4 µM (inactive) | 30.5 µM (inactive) | 26.7 µM (inactive) | 32.9 µM (inactive) | 36.9 µM (inactive) | 50.6 µM (inactive) | 30.8 µM (inactive) | 27.9 µM (inactive) | 23.8 µM (inactive) | 18.7 µM (inactive) | 28.6 µM (inactive) | 28.6 µM (inactive) | 25.2 µM (inactive) | 28.2 µM (inactive) | 16.2 µM (inactive) | 38.5 µM (inactive) | 19.6 µM (inactive) | 19.2 µM (inactive) | 
CC(O)(/C=C/c1ccccc1)P(=O)(O)c1ccccc1 (configuration not stated) | > 100 µM (inactive) |  | > 100 µM (inactive) | > 100 µM (inactive) | > 100 µM (inactive) | > 100 µM (inactive) | > 100 µM (inactive) | > 100 µM (inactive) | > 100 µM (inactive) | > 100 µM (inactive) | > 100 µM (inactive) | > 100 µM (inactive) | > 100 µM (inactive) | > 100 µM (inactive) | > 100 µM (inactive) | > 100 µM (inactive) | > 100 µM (inactive) |  | > 100 µM (inactive) | 
CC(=O)NC(CCCCNCc1ccccc1)C(=O)NCc1ccccc1 (configuration not stated) | > 100 µM (inactive) | > 100 µM (inactive) |  | > 100 µM (inactive) | > 100 µM (inactive) | > 100 µM (inactive) | > 100 µM (inactive) | > 100 µM (inactive) | > 100 µM (inactive) | > 100 µM (inactive) | > 100 µM (inactive) | > 100 µM (inactive) | > 100 µM (inactive) | > 100 µM (inactive) |  | > 100 µM (inactive) | > 100 µM (inactive) | > 100 µM (inactive) | > 100 µM (inactive) | 
COC(=O)C(=O)CC(=O)CCn1ncc(Cl)c(Cl)c1=O | 19.6 µM (inactive) | 6.19 µM (inactive) |  | 15.7 µM (inactive) | 22.7 µM (inactive) | 17.1 µM (inactive) | 18.5 µM (inactive) | 11.3 µM (inactive) | 32.8 µM (inactive) | 15.1 µM (inactive) | 14.3 µM (inactive) | 7.16 µM (inactive) | 24.2 µM (inactive) | 16.9 µM (inactive) |  | 16.3 µM (inactive) | 19.9 µM (inactive) | 12.8 µM (inactive) | 9.23 µM (inactive) | 
CC(=O)OC1(C#N)CC2OC1C1NC21 (configuration not stated) | > 100 µM (inactive) | > 100 µM (inactive) |  | > 100 µM (inactive) | > 100 µM (inactive) | > 100 µM (inactive) | > 100 µM (inactive) | > 100 µM (inactive) | > 100 µM (inactive) | > 100 µM (inactive) | > 100 µM (inactive) | > 100 µM (inactive) | > 100 µM (inactive) | > 100 µM (inactive) |  | > 100 µM (inactive) | > 100 µM (inactive) | > 100 µM (inactive) | > 100 µM (inactive) | 
CCc1ccccc1NC(=O)C1=C(C)NC(C)=C(C(=O)Nc2ccccc2CC)C1c1ccc2c(c1)OCO2 | 16.8 µM (inactive) | 15.4 µM (inactive) |  | 13.6 µM (inactive) | 17.1 µM (inactive) | 29.4 µM (inactive) | 49.3 µM (inactive) | 25.2 µM (inactive) | 25.1 µM (inactive) |  | 29 µM (inactive) | 24.4 µM (inactive) | 24.3 µM (inactive) | 41.2 µM (inactive) |  | 23.2 µM (inactive) | 29.1 µM (inactive) | 14.5 µM (inactive) | 26.9 µM (inactive) | 
CN(C)c1[se]nc2c1c(=O)n(C)c(=O)n2C | > 100 µM (inactive) | > 100 µM (inactive) |  | > 100 µM (inactive) | > 100 µM (inactive) | > 100 µM (inactive) | > 100 µM (inactive) | > 100 µM (inactive) | > 100 µM (inactive) | > 100 µM (inactive) | > 100 µM (inactive) | > 100 µM (inactive) | > 100 µM (inactive) | > 100 µM (inactive) |  | > 100 µM (inactive) | > 100 µM (inactive) | > 100 µM (inactive) | > 100 µM (inactive) | 
Cc1ccc(S(=O)(=O)NC2CCCCO2)cc1 (configuration not stated) | > 100 µM (inactive) | > 100 µM (inactive) |  | > 100 µM (inactive) | > 100 µM (inactive) | > 100 µM (inactive) | > 100 µM (inactive) | > 100 µM (inactive) | > 100 µM (inactive) | > 100 µM (inactive) | > 100 µM (inactive) | > 100 µM (inactive) | > 100 µM (inactive) | > 100 µM (inactive) |  | > 100 µM (inactive) | > 100 µM (inactive) | > 100 µM (inactive) | > 100 µM (inactive) | 
CCC1(CN(C)C)CC/C(=C\c2ccc(OC)c(OC)c2)C1=O (configuration not stated) | > 100 µM (inactive) | 40.2 µM (inactive) |  | > 100 µM (inactive) | > 100 µM (inactive) | > 100 µM (inactive) | > 100 µM (inactive) | > 100 µM (inactive) | 88.7 µM (inactive) | > 74.5 µM (inactive) | 76.6 µM (inactive) | > 100 µM (inactive) | > 100 µM (inactive) | > 100 µM (inactive) |  | > 74.3 µM (inactive) | > 100 µM (inactive) | 18.2 µM (inactive) | > 100 µM (inactive) | 
COc1cc2c(c(OC)c1OC)-c1ccc(SC)c(=O)cc1[C@@H](NC(=O)c1ccc([N+](=O)[O-])cc1)CC2 | < 0.0025 µM (active) | 0.00289 µM (active) |  | < 0.0025 µM (active) | < 0.0025 µM (active) | 0.0126 µM (active) |  | 0.0154 µM (active) | 0.00632 µM (active) | < 0.0025 µM (active) | < 0.0025 µM (active) | < 0.0025 µM (active) | < 0.01 µM (active) | 0.00957 µM (active) |  | < 0.0025 µM (active) | 0.025 µM (active) | < 0.0025 µM (active) | 0.025 µM (active) | 
Cc1ccc(C)c(NC(=O)c2cccc([N+](=O)[O-])c2O)c1 | 32.3 µM (inactive) | 20.3 µM (inactive) |  | 12.7 µM (inactive) | 15.8 µM (inactive) | 22.2 µM (inactive) | 34.4 µM (inactive) | 22 µM (inactive) | 24 µM (inactive) | 23.1 µM (inactive) | 17.3 µM (inactive) | 16.7 µM (inactive) | 16.6 µM (inactive) | 27.2 µM (inactive) |  | 5.9 µM (inactive) | 25.5 µM (inactive) | 5.71 µM (inactive) | 23.9 µM (inactive) | 
